Assay: xn = mol fraction of the nth substance listed

O=[N+]([O-])[O-].[Li+] + CC[NH3+].O=[N+]([O-])[O-]
Settings | electrical conductivity [S/m] | viscosity [mPa·s]
223 K, 100 kPa, x1 = 0.09755 | 0.01 | –
223 K, 100 kPa, x1 = 0.1778 | 0.005 | –
233 K, 100 kPa, x1 = 0.09755 | 0.039 | –
233 K, 100 kPa, x1 = 0.1778 | 0.022 | –
243 K, 100 kPa, x1 = 0.09755 | 0.104 | –
243 K, 100 kPa, x1 = 0.1778 | 0.065 | –
253 K, 100 kPa, x1 = 0.09755 | 0.224 | –
253 K, 100 kPa, x1 = 0.1778 | 0.151 | –
263 K, 100 kPa, x1 = 0.09755 | 0.414 | –
263 K, 100 kPa, x1 = 0.1778 | 0.295 | –
273 K, 100 kPa, x1 = 0.09755 | 0.682 | –
273 K, 100 kPa, x1 = 0.1778 | 0.512 | –
283 K, 100 kPa, x1 = 0.09755 | 1.03 | –
283 K, 100 kPa, x1 = 0.1778 | 0.81 | –
288.15 K, 100 kPa, x1 = 0.09755 | – | 56.2
288.15 K, 100 kPa, x1 = 0.1778 | – | 68.6
293 K, 100 kPa, x1 = 0.09755 | 1.47 | –
293 K, 100 kPa, x1 = 0.1778 | 1.19 | –
293.15 K, 100 kPa, x1 = 0.09755 | – | 46.97
293.15 K, 100 kPa, x1 = 0.1778 | – | 56.13
298.15 K, 100 kPa, x1 = 0.09755 | – | 39.49
298.15 K, 100 kPa, x1 = 0.1778 | – | 46.25
298.15 K, 101 kPa, x2 = 0.8222 | – | 68.1
303 K, 100 kPa, x1 = 0.09755 | 1.99 | –
303 K, 100 kPa, x1 = 0.1778 | 1.67 | –
303.15 K, 100 kPa, x1 = 0.09755 | – | 33.4
303.15 K, 100 kPa, x1 = 0.1778 | – | 38.36
308.15 K, 100 kPa, x1 = 0.09755 | – | 28.4
308.15 K, 100 kPa, x1 = 0.1778 | – | 32.01
313 K, 100 kPa, x1 = 0.09755 | 2.58 | –
313 K, 100 kPa, x1 = 0.1778 | 2.22 | –
313.15 K, 100 kPa, x1 = 0.09755 | – | 24.27
313.15 K, 100 kPa, x1 = 0.1778 | – | 26.86
323 K, 100 kPa, x1 = 0.09755 | 3.23 | –
323 K, 100 kPa, x1 = 0.1778 | 2.86 | –
333 K, 100 kPa, x1 = 0.09755 | 3.95 | –
333 K, 100 kPa, x1 = 0.1778 | 3.58 | –
343 K, 100 kPa, x1 = 0.09755 | 4.73 | –
343 K, 100 kPa, x1 = 0.1778 | 4.36 | –
353 K, 100 kPa, x1 = 0.09755 | 5.54 | –
353 K, 100 kPa, x1 = 0.1778 | 5.21 | –
363 K, 100 kPa, x1 = 0.09755 | 6.4 | –
363 K, 100 kPa, x1 = 0.1778 | 6.11 | –
373 K, 100 kPa, x1 = 0.09755 | 7.29 | –
373 K, 100 kPa, x1 = 0.1778 | 7.06 | –

CCCCCC[n+]1ccn(C)c1.F[B-](F)(F)F + CC[n+]1ccn(C)c1.F[B-](F)(F)F
101 kPa
Settings | viscosity [mPa·s]
298.15 K, x2 = 0 | 211
298.15 K, x2 = 0.4061 | 111.8
298.15 K, x2 = 0.793 | 53.76
299.15 K, x2 = 0 | 198.1
299.15 K, x2 = 0.1196 | 162.2
299.15 K, x2 = 0.1803 | 148.6
299.15 K, x2 = 0.3145 | 121.9
299.15 K, x2 = 0.4938 | 91.2
299.15 K, x2 = 0.6006 | 74.7
299.15 K, x2 = 0.793 | 51.53
299.15 K, x2 = 0.9022 | 41.62
301.15 K, x2 = 0.0545 | 155.3
301.15 K, x2 = 0.1803 | 132.9
301.15 K, x2 = 0.8516 | 42.79
301.15 K, x2 = 0.9022 | 38.54
302.15 K, x2 = 0 | 167.2
302.15 K, x2 = 0.1196 | 137.4
302.15 K, x2 = 0.8516 | 41.13
302.15 K, x2 = 0.9022 | 37.08
303.15 K, x2 = 0.5526 | 68.4
303.15 K, x2 = 0.6006 | 62.29
303.15 K, x2 = 0.7059 | 51.99
303.15 K, x2 = 0.793 | 43.73
304.15 K, x2 = 0.7059 | 49.86
304.15 K, x2 = 0.9022 | 34.46
305.15 K, x2 = 0.3145 | 89.6
305.15 K, x2 = 0.4938 | 68.4
305.15 K, x2 = 0.6006 | 57.12
305.15 K, x2 = 0.793 | 40.44
305.15 K, x2 = 0.9022 | 33.23
307.15 K, x2 = 0.793 | 37.44
307.15 K, x2 = 0.9022 | 30.96
308.15 K, x2 = 0.3145 | 77.6
308.15 K, x2 = 0.4938 | 59.86
308.15 K, x2 = 0.6006 | 50.38
308.15 K, x2 = 0.793 | 36.05
308.15 K, x2 = 0.9022 | 29.94

CCCCn1cc[n+](CCOCCOCCOCCOCC[n+]2ccn(CCCC)c2)c1.N#C[N-]C#N.N#C[N-]C#N + CC[n+]1ccn(C)c1.N#C[N-]C#N + O=S(=O)([N-]S(=O)(=O)C(F)(F)F)C(F)(F)F.[Li+]
100 kPa, x1 = 0.2104, x2 = 0.6943
Settings | electrical conductivity [S/m]
298 K | 0.471
303 K | 0.549
313 K | 0.79
323 K | 1.05
333 K | 1.37
343 K | 1.67

F[B-](F)(F)F.[Li+] + CC[n+]1ccn(C)c1.O=S(=O)([N-]S(=O)(=O)C(F)(F)F)C(F)(F)F
electrical conductivity [S/m], 101 kPa
Settings | x2 = 0.7088 | x2 = 0.7396 | x2 = 0.8073 | x2 = 0.8856 | x2 = 0.9623
288.15 K | – | 0.238 | 0.31 | 0.431 | 0.542
298.15 K | 0.295 | 0.384 | 0.489 | 0.651 | 0.807
333.15 K | 1.01 | 1.18 | 1.4 | 1.72 | 2.03

O=C1OCCO1 + CC[n+]1ccn(C)c1.O=S(=O)([N-]S(=O)(=O)C(F)(F)F)C(F)(F)F
100 kPa
Settings | electrical conductivity [S/m] | viscosity [mPa·s]
293.15 K, x1 = 0.8163 | – | 5
293.15 K, x1 = 0.98 | 0.62 | –
303.15 K, x1 = 0.5263 | – | 11.5
303.15 K, x1 = 0.7476 | – | 6.1
313.15 K, x1 = 0.95 | 1.42 | –
333.15 K, x1 = 0.8163 | – | 2.4
333.15 K, x1 = 0.95 | 1.84 | –
343.15 K, x1 = 0.5263 | – | 4.6
343.15 K, x1 = 1 | – | 1.16
353.15 K, x1 = 0.66 | 4.47 | –
353.15 K, x1 = 0.82 | 4.06 | –
353.15 K, x1 = 0.9467 | – | 1.33
353.15 K, x1 = 0.98 | 1.37 | –
363.15 K, x1 = 0.8163 | – | 1.56
373.15 K, x1 = 0.5263 | – | 3
373.15 K, x1 = 1 | – | 0.85
383.15 K, x1 = 0.7476 | – | 1.63
393.15 K, x1 = 0.7476 | – | 1.49
393.15 K, x1 = 0.9467 | – | 0.91

F[B-](F)(F)F.[Li+] + CC[n+]1ccn(C)c1.O=S(=O)([O-])C(F)(F)F
electrical conductivity [S/m], 101 kPa
Settings | x1 = 0.007746 | x1 = 0.01537 | x2 = 0.9648 | x2 = 0.9746
288.15 K | 0.628 | 0.59 | – | 0.537
298.15 K | 0.908 | 0.855 | 0.796 | 0.797
333.15 K | 2.25 | 2.19 | 2.06 | 2.07

O=[N+]([O-])[O-].[Li+] + CC[n+]1ccn(C)c1.O=S(=O)([O-])C(F)(F)F
electrical conductivity [S/m], 101 kPa
Settings | x2 = 0.8748 | x2 = 0.9165 | x2 = 0.9576 | x2 = 0.9746
288.15 K | 0.38 | 0.454 | 0.563 | 0.562
298.15 K | 0.587 | 0.68 | 0.818 | 0.816
333.15 K | 1.69 | 1.85 | 2.07 | 2.1

CC(C)[C@H](N)C(=O)O + CC[n+]1ccn(C)c1.O=S(=O)([O-])O + O
viscosity [mPa·s], 100 kPa
Settings | x1 = 0.0003621, x2 = 0 | x1 = 0.0007257, x2 = 0 | x1 = 0.001091, x2 = 0 | x1 = 0.001447, x2 = 0 | x1 = 0.001793, x2 = 0 | x1 = 0.002246, x2 = 0 | x1 = 0.002701, x2 = 0
293.15 K | 1.023 | 1.043 | 1.064 | 1.084 | 1.103 | 1.128 | 1.154
298.15 K | 0.899 | 0.907 | 0.916 | 0.924 | 0.931 | 0.941 | 0.952
303.15 K | 0.805 | 0.812 | 0.82 | 0.827 | 0.835 | 0.844 | 0.854
308.15 K | 0.727 | 0.734 | 0.742 | 0.749 | 0.756 | 0.765 | 0.774
313.15 K | 0.66 | 0.666 | 0.673 | 0.679 | 0.686 | 0.694 | 0.703

O=C(O)C(F)(F)C(F)(F)C(F)(F)C(F)(F)F + CC[n+]1ccn(C)c1.[Cl-]
102 kPa
Settings | viscosity [mPa·s]
293.15 K, x2 = 0.6636 | 295
303.15 K, x2 = 0.3346 | 24.2
313.15 K, x2 = 0.3346 | 17.41
318.15 K, x2 = 0.5026 | 31.7
323.15 K, x2 = 0.5026 | 26.6
333.15 K, x2 = 0.5026 | 19.35
333.15 K, x2 = 0.6636 | 39.1
338.15 K, x2 = 0.3346 | 8.91
338.15 K, x2 = 0.5026 | 16.68
348.15 K, x2 = 0.5026 | 12.76
353.15 K, x2 = 0.3346 | 6.42

CC(C)=O + CC[n+]1ccn(C)c1C.F[B-](F)(F)F
101.3 kPa, x2 = 0
Settings | viscosity [mPa·s]
293.15 K | 0.325
298.15 K | 0.303
303.15 K | 0.297
308.15 K | 0.283
313.15 K | 0.269
318.15 K | 0.251
323.15 K | 0.244
